# ChEMBL document CHEMBL1201862, “PubChem BioAssay data set” (2004)
# The source made the active and inactive calls.
# Columns and labels:
# [1] = biological target: Eukaryotic translation initiation factor 4H (Homo sapiens, UniProt Q15056); test: eIF4H inhibition in translation initiation, SAR follow-up (AID 435011); format: functional
# [2] = biological target: Polyadenylate-binding protein 1 (Homo sapiens, UniProt P11940); test: PABP inhibition in translation initiation, SAR follow-up (AID 435018); format: functional
# [3] = biological target: Peroxisome proliferator-activated receptor gamma/Nuclear receptor coactivator 1 (Homo sapiens, UniProt P37231); test: TR-FRET dose response biochemical High Throughput Screening assay for agonists of the steroid receptor coactivator 1 (SRC-1) recruitment by the peroxisome proliferator-activated receptor gamma (PPAR gamma): non-selective agonists. [Related pubchem assays (depositor defined):AID1300, AID1808, AID504735, AID631]; format: protein assay
# [4] = biological target: Peroxisome proliferator-activated receptor gamma/Nuclear receptor coactivator 2 (Homo sapiens, UniProt P37231); test: (§1) TR-FRET dose response biochemical High Throughput Screening assay for agonists of the steroid receptor coactivator 2 (SRC-2) recruitment by the peroxisome proliferator-activated receptor gamma (PPAR gamma): non-selective agonists. [Related pubchem assays: 1297, 1032 ]; format: functional
# [5] = biological target: Peroxisome proliferator-activated receptor gamma/Nuclear receptor coactivator 3 (Homo sapiens, UniProt P37231); test: as §1, with “3 (SRC-3)” for “2 (SRC-2)”, “1301 (Confirmation screen.), 1048 (Primary screen.)]” for “1297, 1032 ]”; format: functional
# [6] = biological target: T1, Kappa-type opioid receptor (Homo sapiens, UniProt P41145); format: functional
# [7] = biological target: T2, Protein skinhead-1 (Caenorhabditis elegans, UniProt P34707); format: functional
# T2 sequence (P34707 whole entry): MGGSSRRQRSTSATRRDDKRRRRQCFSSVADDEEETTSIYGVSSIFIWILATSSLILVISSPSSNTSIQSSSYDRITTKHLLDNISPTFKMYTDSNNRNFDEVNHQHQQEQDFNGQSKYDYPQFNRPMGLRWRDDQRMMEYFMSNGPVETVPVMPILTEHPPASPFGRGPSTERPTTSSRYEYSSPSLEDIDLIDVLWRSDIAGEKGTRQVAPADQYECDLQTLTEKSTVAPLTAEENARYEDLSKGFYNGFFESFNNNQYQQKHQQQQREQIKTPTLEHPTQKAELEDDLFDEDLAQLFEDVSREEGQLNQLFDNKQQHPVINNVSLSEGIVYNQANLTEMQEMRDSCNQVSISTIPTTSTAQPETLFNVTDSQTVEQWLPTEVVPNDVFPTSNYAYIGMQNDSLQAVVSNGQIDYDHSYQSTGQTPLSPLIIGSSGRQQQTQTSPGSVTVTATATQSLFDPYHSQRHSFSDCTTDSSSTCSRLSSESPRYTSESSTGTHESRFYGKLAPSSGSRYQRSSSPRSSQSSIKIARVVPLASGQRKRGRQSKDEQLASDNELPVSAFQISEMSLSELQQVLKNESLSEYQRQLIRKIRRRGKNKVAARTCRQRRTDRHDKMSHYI
# [8] = biological target: Beta-galactosidase (Escherichia coli, UniProt Q8VNN2); format: functional
# [9] = biological target: T1, Kappa-type opioid receptor; format: functional; remark: listed apart in the source
# [10] = biological target: SUMO-activating enzyme (Homo sapiens, UniProt Q9UBT2); test: SUMOylation inhibitor hit validation, confirmation, SUMOylation inhibitor project, biochemical, AlphaScreen (AID 2018); format: functional
# [11] = Luminescence Cell-Based Dose Retest to Confirm Inhibitors of Cancer Stem Cells. [Related pubchem assays (depositor defined):AID2717, AID2721]; format: functional; conditions: Homo sapiens
# [12] = biological target: T3, Voltage-gated N-type calcium channel alpha-1B subunit/Amyloid beta A4 precursor protein-binding family A member 1 (Homo sapiens, UniProt Q00975+Q02410); test: disruptors of Mint-PDZ/N-type channel peptide interaction – biochemical, HTRF, set 2, SAR follow-up (AID 434980); format: functional
# [13] = biological target: T3, Voltage-gated N-type calcium channel alpha-1B subunit/Amyloid beta A4 precursor protein-binding family A member 1; test: disruptors of Mint-PDZ/N-type channel peptide interaction – biochemical, HTRF, SAR follow-up (AID 2489); format: functional
# [14] = biological target: Heat shock protein HSP 90-alpha (Homo sapiens, UniProt P07900); format: functional, organism-based
# [15] = tested on: BJ; test: cytotoxicity toward Ras-transformed BJeLR fibroblasts, dose response, cell-based, alamar blue fluorescence, cherrypicked samples (AID 2631); format: functional; conditions: Homo sapiens;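 also: confirmatory dose-response assay in RAS-dependent BJ fibroblasts engineered with TERT, LT and ST, with cytotoxicity read by fluorescence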
# [16] = biological target: Nonstructural protein 1 (Influenza A virus, UniProt Q194T2); format: functional, Influenza A virus (A/California/07/2009(H1N1))
# [17] = tested on: HEK293; test: cells; format: functional, cell-based; conditions: Homo sapiens
# [18] = tested on: HEK293; test: NOD2 signaling inhibitors in MDP-stimulated cells, cell-based, uHTS, luminescence (AID 2001); format: functional; conditions: Homo sapiens
# [19] = biological target: Tumor necrosis factor (Homo sapiens, UniProt P01375); test: TNFa-triggered NF-kB activation inhibitors, SAR follow-up, cell-based, revised (AID 2337); format: functional
# [20] = tested on: HEK293; test: cells; conditions: Homo sapiens
# [21] = biological target: T4, Nucleotide-binding oligomerization domain-containing protein 1 (Homo sapiens, UniProt Q9Y239); test: NOD1 signaling inhibitors, SAR follow-up, revised (AID 2333); format: functional
# T4 sequence (Q9Y239 whole entry): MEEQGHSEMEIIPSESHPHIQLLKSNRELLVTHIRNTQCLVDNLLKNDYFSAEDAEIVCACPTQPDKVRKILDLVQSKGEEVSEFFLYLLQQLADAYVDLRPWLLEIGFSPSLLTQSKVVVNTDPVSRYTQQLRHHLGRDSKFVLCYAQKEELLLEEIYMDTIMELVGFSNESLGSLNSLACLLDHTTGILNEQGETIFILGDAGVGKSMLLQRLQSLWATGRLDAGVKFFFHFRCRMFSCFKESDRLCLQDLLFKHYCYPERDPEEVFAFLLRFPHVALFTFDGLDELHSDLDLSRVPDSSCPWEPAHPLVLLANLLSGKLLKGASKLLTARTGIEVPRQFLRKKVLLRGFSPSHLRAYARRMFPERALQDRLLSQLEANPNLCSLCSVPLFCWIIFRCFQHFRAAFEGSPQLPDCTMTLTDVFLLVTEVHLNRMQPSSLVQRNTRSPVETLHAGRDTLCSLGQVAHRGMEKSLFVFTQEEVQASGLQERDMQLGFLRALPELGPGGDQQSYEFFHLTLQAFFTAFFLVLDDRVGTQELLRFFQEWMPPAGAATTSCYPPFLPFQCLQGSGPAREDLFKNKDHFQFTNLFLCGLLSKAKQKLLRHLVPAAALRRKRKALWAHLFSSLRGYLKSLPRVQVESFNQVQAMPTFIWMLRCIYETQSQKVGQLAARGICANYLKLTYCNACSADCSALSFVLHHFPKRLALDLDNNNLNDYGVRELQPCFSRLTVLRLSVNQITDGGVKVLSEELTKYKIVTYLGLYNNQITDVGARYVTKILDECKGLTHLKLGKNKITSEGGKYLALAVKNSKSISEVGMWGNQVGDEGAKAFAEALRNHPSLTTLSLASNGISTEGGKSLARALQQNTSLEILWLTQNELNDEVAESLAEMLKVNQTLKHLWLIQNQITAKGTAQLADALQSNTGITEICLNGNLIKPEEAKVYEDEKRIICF
# [22] = tested on: HEK293; test: NOD1 signaling inhibitors, primary screen, cell-based, luminescence, uHTS (AID 1578); format: functional; conditions: Homo sapiens
# [23] = tested on: HEK293; test: cells; format: functional, cell-based; conditions: Homo sapiens; remark: listed apart in the source
# [24] = biological target: T5, Rac GTPase-activating protein 1 (Homo sapiens, UniProt Q9H0H5); test: MgcRacGAP GTPase-activating activity inhibitors, confirmation, biochemical, ADP Hunter fluorescence, primary and confirmatory (AID 624330); format: functional
# T5 sequence (Q9H0H5 whole entry): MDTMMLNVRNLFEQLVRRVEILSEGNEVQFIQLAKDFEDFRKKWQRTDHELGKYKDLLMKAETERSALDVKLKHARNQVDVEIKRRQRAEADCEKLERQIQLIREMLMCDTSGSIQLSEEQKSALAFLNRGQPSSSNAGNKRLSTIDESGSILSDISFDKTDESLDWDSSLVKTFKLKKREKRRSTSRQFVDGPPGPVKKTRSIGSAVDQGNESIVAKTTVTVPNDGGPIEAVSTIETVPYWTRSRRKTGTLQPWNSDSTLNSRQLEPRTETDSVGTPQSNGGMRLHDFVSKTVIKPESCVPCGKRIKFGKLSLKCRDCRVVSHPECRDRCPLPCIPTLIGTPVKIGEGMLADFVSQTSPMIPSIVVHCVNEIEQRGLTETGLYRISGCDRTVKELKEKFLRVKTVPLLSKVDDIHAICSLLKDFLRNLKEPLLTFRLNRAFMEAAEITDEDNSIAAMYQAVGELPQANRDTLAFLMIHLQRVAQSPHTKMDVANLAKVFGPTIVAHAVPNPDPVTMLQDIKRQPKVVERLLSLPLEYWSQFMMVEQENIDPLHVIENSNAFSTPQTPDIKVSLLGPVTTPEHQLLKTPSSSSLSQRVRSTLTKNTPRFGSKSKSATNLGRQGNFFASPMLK
# [25] = tested on: INS1; test: beta cell apoptosis inhibitors, cytokine rescue, dose response, luminescence, retest (AID 449756); format: functional, cell-based; conditions: Rattus norvegicus;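 also: cell death triggered by IL-1 beta plus TNF-alpha plus IFN-gamma mixture; protective hits raise ATP signal compared with cytokine alone wells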
# [26] = cells; format: functional, cell-based
# [27] = cells; format: functional, cell-based; remark: listed apart in the source
# [28] = tested on: HEK293; test: cells; format: functional, cell-based; conditions: Homo sapiens; remark: listed apart in the source
# [29] = biological target: Nucleotide-binding oligomerization domain-containing protein 2 (Homo sapiens, UniProt Q9HC29); test: NOD2 signaling inhibitors, cell-based, luminescence, uHTS, HEK293 (AID 1566); format: functional
# Peroxisome proliferator-activated receptor gamma/Nuclear receptor coactivator 2, sequence (P37231 whole entry): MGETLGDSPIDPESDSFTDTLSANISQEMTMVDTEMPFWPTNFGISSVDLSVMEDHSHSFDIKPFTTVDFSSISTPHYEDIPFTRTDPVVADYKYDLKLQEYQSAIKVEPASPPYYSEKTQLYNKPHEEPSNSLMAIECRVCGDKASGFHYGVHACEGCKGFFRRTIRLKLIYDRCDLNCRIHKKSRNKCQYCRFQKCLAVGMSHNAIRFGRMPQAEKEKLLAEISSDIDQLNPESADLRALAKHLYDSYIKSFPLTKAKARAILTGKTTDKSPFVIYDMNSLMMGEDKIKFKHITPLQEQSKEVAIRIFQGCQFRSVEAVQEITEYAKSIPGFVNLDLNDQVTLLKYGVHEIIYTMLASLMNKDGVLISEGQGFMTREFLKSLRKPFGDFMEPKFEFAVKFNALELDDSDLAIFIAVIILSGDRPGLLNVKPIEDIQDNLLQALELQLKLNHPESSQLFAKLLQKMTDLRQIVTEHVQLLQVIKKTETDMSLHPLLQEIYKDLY
# Peroxisome proliferator-activated receptor gamma/Nuclear receptor coactivator 2, sequence (Q15596 whole entry, further chain): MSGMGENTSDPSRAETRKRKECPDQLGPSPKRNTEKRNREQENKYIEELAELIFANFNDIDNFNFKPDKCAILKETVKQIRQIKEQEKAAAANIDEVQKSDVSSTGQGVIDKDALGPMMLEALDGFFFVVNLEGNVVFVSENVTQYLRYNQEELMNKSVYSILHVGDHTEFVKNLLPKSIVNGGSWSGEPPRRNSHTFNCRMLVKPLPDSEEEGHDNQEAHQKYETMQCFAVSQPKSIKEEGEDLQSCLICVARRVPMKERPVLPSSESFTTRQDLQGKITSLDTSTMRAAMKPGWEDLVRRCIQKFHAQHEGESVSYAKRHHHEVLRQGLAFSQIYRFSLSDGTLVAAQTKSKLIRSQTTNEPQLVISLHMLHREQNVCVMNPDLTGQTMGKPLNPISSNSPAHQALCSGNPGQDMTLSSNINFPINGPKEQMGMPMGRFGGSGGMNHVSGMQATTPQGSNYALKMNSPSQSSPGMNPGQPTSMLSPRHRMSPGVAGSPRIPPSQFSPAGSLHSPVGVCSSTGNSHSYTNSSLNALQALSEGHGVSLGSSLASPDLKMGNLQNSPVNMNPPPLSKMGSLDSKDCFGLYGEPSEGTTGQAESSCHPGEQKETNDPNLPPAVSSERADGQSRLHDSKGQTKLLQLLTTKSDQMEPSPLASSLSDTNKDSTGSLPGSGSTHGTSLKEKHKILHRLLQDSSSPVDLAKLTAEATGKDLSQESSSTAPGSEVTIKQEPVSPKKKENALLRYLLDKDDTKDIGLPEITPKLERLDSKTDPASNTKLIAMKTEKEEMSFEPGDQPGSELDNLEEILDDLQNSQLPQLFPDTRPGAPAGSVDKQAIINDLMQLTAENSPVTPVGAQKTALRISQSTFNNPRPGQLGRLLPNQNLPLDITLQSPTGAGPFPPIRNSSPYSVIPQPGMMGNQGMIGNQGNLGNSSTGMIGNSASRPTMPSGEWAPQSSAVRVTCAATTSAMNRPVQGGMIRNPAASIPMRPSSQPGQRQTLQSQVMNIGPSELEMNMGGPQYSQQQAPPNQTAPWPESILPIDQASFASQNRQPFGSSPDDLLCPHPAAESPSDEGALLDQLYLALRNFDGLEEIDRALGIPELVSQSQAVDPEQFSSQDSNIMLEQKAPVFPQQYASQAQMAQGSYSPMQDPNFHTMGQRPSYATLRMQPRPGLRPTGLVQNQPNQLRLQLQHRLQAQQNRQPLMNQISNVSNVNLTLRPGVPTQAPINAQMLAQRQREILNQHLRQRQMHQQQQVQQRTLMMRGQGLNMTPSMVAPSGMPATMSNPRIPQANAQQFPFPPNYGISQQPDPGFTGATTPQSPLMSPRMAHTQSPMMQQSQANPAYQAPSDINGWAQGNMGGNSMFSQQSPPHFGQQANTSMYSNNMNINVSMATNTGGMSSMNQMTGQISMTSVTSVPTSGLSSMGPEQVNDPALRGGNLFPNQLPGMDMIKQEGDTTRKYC
# Peroxisome proliferator-activated receptor gamma/Nuclear receptor coactivator 3, sequence (P37231 whole entry): as the sequence (P37231 whole entry) above
# Peroxisome proliferator-activated receptor gamma/Nuclear receptor coactivator 3, sequence (Q9Y6Q9 whole entry, further chain): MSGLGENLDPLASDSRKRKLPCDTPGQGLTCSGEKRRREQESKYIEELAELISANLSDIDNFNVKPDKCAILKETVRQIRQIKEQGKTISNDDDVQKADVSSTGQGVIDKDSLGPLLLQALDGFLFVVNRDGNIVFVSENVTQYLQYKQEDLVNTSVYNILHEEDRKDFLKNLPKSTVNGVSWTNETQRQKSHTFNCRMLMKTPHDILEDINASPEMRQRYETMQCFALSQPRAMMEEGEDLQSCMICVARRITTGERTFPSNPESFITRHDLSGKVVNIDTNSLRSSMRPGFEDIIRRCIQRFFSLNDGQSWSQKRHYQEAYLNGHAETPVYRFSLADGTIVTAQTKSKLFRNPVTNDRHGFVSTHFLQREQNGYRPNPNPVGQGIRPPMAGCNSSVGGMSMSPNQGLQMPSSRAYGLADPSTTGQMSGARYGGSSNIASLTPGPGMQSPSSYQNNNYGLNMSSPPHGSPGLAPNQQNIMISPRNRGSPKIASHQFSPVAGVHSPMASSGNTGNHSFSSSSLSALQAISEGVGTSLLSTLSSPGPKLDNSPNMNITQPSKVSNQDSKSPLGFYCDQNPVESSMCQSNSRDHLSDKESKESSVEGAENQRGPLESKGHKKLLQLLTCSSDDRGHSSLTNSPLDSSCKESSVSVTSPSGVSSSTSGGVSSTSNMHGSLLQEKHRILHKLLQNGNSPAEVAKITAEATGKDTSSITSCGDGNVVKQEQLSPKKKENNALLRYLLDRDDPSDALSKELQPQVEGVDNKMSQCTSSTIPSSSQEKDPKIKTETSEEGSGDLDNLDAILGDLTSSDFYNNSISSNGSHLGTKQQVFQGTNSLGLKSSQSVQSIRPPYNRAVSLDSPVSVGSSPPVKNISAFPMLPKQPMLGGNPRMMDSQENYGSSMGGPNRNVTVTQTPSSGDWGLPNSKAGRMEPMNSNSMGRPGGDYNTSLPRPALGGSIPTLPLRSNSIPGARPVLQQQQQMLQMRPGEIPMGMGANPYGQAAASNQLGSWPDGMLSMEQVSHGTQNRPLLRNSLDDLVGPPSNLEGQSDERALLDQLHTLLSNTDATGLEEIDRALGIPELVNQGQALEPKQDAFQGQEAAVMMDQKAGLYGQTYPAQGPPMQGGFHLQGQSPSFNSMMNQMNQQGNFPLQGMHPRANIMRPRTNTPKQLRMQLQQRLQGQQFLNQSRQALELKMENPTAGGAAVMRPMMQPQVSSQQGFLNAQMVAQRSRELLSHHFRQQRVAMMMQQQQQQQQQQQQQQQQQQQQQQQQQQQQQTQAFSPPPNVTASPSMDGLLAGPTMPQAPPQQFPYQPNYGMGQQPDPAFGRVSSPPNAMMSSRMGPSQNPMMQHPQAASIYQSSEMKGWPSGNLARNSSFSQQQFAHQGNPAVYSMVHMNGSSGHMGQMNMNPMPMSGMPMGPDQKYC
# T1 sequence (P41145 whole entry): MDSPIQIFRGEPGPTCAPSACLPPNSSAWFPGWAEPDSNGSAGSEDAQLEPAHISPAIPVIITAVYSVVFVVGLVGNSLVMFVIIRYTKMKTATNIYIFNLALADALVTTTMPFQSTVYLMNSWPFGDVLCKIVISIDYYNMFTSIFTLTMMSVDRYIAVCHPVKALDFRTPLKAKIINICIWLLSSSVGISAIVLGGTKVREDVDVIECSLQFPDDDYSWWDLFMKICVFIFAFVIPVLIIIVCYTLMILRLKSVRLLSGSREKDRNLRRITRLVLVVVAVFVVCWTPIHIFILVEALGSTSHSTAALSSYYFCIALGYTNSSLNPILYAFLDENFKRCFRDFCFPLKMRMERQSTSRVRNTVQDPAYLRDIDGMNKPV
# Tumor necrosis factor, sequence (P01375 whole entry): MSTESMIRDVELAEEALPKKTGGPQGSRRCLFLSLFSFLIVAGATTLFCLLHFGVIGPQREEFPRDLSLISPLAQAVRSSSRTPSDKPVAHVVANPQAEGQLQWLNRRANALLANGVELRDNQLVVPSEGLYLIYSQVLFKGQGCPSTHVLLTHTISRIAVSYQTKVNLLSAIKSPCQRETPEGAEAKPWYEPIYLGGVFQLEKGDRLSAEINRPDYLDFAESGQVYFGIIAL
# Nonstructural protein 1, sequence (Q194T2 whole entry): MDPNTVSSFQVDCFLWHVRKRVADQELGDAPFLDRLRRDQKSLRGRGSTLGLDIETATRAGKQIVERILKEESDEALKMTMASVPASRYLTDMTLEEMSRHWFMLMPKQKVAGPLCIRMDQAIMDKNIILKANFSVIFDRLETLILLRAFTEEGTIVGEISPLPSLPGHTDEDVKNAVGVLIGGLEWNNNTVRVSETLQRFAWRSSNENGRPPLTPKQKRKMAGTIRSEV
smiles,measurement,setting,value
COc1ccccc1NC(=O)COC(=O)c1ccc(NC(N)=O)cc1,IC50,[1],17.9 µM (active)
same,IC50,[2],69.4 µM (active)
O=C(CSc1ncnc2c1oc1ccccc12)Nc1ccccc1F,EC50,[3],63.3 µM (inactive)
same,EC50,[4],59.2 µM (not active)
same,EC50,[5],91.1 µM (not active)
O=C(Nc1ccc(Cl)cc1)C1CCN(C(=O)c2cccs2)CC1,IC50,[1],> 100 µM (inactive)
same,IC50,[2],> 100 µM (inactive)
CC(=O)NS(=O)(=O)c1ccc(Nc2ccc([N+](=O)[O-])c3nonc23)cc1,IC50,[6],13.9 µM (active)
same,IC50,[7],34.7 µM (active)
same,EC50,[8],18.1 µM (active)
same,IC50,[9],> 32 µM
COc1ccccc1CCNC(=O)CSc1ccc(-c2ccco2)nn1,IC50,[1],> 100 µM (inactive)
same,IC50,[2],> 100 µM (inactive)
CCc1ccc(NC(=O)C(CC)Sc2nc3cc4c(cc3c(=O)n2Cc2ccco2)OCO4)cc1 (centres undefined),IC50,[10],48.9 µM (active)
same,AC50,[11],8.32 µM (active)
CC12C=CC(C)(O1)C1C(=O)N(c3ccc(F)cc3)C(=O)C12 (centres undefined),IC50,[12],8.89 µM (active)
same,IC50,[13],10.7 µM (active)
C/C(=N\Nc1ncc(Cl)cc1Cl)c1ccccn1,IC50,[6],3.47 µM (active)
same,AC50,[14],1.84 µM (active)
same,EC50,[15],20.9 nM (active)
same,EC50,[8],> 31.5 µM (inactive)
same,IC50,[16],12 µM (active)
same,IC50,[9],> 32 µM
Cc1oc(-c2cc(F)ccc2F)nc1CN1CCN(c2ncnc3ccccc23)CC1,IC50,[17],19.9 µM (active)
same,IC50,[18],8.53 µM (active)
same,IC50,[19],5.97 µM (active)
same,IC50,[20],> 20 µM (inactive)
same,IC50,[21],6.29 µM (active)
same,EC50,[22],4.42 µM (active)
same,IC50,[23],11.1 µM (active)
O=C(CSc1ncnc2c1oc1ccccc12)NCc1ccco1,EC50,[3],22.6 µM (inactive)
same,EC50,[4],11.5 µM (not active)
same,EC50,[5],> 79.4 µM (not active)
Clc1cccc(-c2ccc(/C=N/c3ccc(N4CCOCC4)cc3)o2)c1Cl,IC50,[24],14.5 µM (active)
same,EC50,[3],49 µM (inactive)
same,EC50,[4],30.5 µM (not active)
same,EC50,[5],> 79.4 µM (not active)
CN(Cc1cccnc1)C(=O)c1cc(COc2ccc3ncccc3c2)on1,AC50,[25],3.92 µM (active)
same,IC50,[17],17.3 µM (active)
same,IC50,[18],8.18 µM (active)
same,IC50,[19],5.24 µM (active)
same,EC50,[26],> 350 µM (not active)
same,EC50,[27],> 350 µM (not active)
same,IC50,[20],> 20 µM (inactive)
same,IC50,[28],> 20 µM (inactive)
same,IC50,[21],2.92 µM (active)
same,EC50,[22],3.64 µM (active)
same,EC50,[29],9.78 µM (active)
same,IC50,[23],6.23 µM (active)
